The results in this text go back to ChEMBL document CHEMBL4765362, “Thirty Years of HDAC Inhibitors: 2020 Insight and Hindsight” (J Med Chem, 2020).

For experiment [1], the target named is T1, Histone deacetylase 4 (Homo sapiens, UniProt P56524). Kind of experiment: Binding affinity to human full length N-terminal GST-tagged HDAC4 by surface plasmon resonance analysis. In general terms: SPR reads the build-up and loss of mass on a sensor chip optically.
The target in experiment [2] is T2, Histone deacetylase 2 (Homo sapiens, UniProt Q92769). Kind of experiment: Inhibition of HDAC2 (unknown origin).
For experiment [3], the target named is T3, Histone deacetylase 1 (Homo sapiens, UniProt Q13547). Kind of experiment: Inhibition of HDAC1 (unknown origin).
Experiment [4] addresses T4, Histone deacetylase 3 (Homo sapiens, UniProt O15379). Kind of experiment: Inhibition of HDAC3 (unknown origin).
Experiment [5] addresses T2, Histone deacetylase 2. Put plainly: Inhibition of human HDAC2 expressed in Sf9 cells using Ac-Leu-Gly-Lys(Ac)-AMC as substrate measured every 30 secs for 60 mins by fluorescence-based assay.
Experiment [6] addresses Histone deacetylase 3/Nuclear receptor corepressor 2 (HDAC3/NCoR2) (Homo sapiens, UniProt O15379). Kind of experiment: Inhibition of human C-terminal His-tagged HDAC3 (1 to 428 residues)/human N-terminal GST-tagged NcoR2 (395 to 489 residues) expressed in sf9 cells using Ac-Leu-Gly-Lys(Ac)-AMC as substrate measured every 30 secs for 60 mins by fluorescence-based assay.
Experiment [7] deals with T3, Histone deacetylase 1. Kind of experiment: Inhibition of HDAC1 (unknown origin) using Ac-Leu-Gly-Lys(Ac)-AMC as substrate measured every 30 secs for 60 mins by fluorescence-based assay.
In experiment [8] the target is T5, Polyamine deacetylase HDAC10 (Homo sapiens, UniProt Q969S8).
T5 sequence (Q969S8 whole entry): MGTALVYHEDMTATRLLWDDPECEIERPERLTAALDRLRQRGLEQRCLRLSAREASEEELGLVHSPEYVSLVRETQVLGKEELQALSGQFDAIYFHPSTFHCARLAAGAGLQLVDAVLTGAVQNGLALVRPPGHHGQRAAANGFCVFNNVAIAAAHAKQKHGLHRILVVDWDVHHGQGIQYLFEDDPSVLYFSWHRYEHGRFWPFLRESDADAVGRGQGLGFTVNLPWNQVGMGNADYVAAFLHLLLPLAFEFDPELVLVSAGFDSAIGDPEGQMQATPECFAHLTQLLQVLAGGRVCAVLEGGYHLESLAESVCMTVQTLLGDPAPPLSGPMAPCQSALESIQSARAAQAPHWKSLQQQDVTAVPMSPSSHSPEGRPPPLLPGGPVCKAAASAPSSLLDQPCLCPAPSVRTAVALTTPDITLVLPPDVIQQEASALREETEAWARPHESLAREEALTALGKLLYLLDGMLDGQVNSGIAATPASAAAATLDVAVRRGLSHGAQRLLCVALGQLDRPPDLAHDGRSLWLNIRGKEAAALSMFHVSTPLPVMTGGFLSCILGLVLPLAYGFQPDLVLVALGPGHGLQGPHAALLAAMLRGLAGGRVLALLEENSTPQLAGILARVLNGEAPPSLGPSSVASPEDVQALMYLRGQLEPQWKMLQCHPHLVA
Put plainly: Inhibition of recombinant human HDAC10 (2 to 631 residues) expressed in baculovirus infected sf9 cells using Fluor-de-lys as substrate preincubated for 15 mins followed by substrate addition and measured after 60 mins by fluorescence method.

Experiment [9] concerns the target T6, Histone deacetylase 9 (Homo sapiens, UniProt Q9UKV0). Kind of experiment: Inhibition of C-terminal His-tagged human HDAC9 (604 to 1066 residues) expressed in baculovirus infected sf9 cells using Boc-L-Lys-MCA as substrate preincubated for 15 mins followed by substrate addition and measured after 60 mins by fluorescence method.
Experiment [10] addresses T7, Histone deacetylase 5 (Homo sapiens, UniProt Q9UQL6). Put plainly: Inhibition of human HDAC5 using Boc-L-Lys-MCA as substrate preincubated for 15 mins followed by substrate addition and measured after 60 mins by fluorescence method.
Experiment [11] deals with T1, Histone deacetylase 4. Kind of experiment: Inhibition of human HDAC4 expressed in baculovirus infected sf9 cells using Boc-L-Lys-MCA as substrate preincubated for 15 mins followed by substrate addition and measured after 60 mins by fluorescence method.
The target in a further experiment is T8, Histone deacetylase 11 (Homo sapiens, UniProt Q96DB2).
T8 sequence (Q96DB2 whole entry): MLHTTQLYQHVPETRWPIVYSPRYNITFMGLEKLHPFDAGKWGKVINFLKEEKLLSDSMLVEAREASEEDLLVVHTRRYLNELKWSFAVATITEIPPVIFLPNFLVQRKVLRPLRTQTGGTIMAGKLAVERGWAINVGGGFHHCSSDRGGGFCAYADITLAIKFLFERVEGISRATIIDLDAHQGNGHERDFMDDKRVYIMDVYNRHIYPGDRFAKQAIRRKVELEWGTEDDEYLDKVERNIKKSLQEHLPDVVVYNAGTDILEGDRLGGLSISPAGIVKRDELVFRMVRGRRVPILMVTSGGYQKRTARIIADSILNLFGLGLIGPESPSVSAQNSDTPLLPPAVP
Kind of experiment: Inhibition of human C-terminal Flag-tagged HDAC11 expressed in sf9 cells using Boc-Lys(Ac)-AMC as substrate preincubated for 10 mins followed by substrate addition by fluorometry.

The next experiment has as its target T9, Histone deacetylase 8 (Homo sapiens, UniProt Q9BY41).
T9 sequence (Q9BY41 whole entry): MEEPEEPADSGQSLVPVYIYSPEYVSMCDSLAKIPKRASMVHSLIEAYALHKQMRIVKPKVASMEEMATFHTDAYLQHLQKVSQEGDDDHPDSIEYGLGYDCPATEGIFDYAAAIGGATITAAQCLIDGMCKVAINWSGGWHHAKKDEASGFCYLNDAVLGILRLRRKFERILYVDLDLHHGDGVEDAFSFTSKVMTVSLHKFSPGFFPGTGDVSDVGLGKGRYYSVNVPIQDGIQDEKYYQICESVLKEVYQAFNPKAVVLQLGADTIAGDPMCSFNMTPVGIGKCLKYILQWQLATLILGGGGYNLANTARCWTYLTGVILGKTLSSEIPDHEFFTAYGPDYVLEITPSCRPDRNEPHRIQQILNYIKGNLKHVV
Kind of experiment: Inhibition of recombinant human C-terminal His-tagged HDAC8 expressed in baculovirus infected sf9 cells using p53 (379 to 382 residues) (Arg-His-Lys(Ac)-Lys(Ac)) by fluorimetric assay.

Experiment [12] concerns the target T5, Polyamine deacetylase HDAC10. Kind of experiment: Inhibition of recombinant human N-terminal FLAG-tagged HDAC10 (2 to 631 residues) expressed in baculovirus infected sf9 cells using p53 (379 to 382 residues) (Arg-His-Lys(Ac)-Lys(Ac)) as substrate by fluorimetric assay.
Experiment [13] can be described thus: Inhibition of LSD1-HDAC1-CoREST (unknown origin) using Boc-(Ac)Lys-AMC as substrate incubated for 20 mins by fluorescence-based assay. Also on record: species or system Homo sapiens.
In experiment [14] the target is T7, Histone deacetylase 5. Put plainly: Inhibition of human HDAC5 expressed in baculovirus infected sf9 cells using (Boc-Lys(trifluoroacetyl)-AMC) as substrate by fluorescence-based assay.
Experiment [15] addresses T6, Histone deacetylase 9. Put plainly: Inhibition of human HDAC9 expressed in baculovirus infected sf9 cells using (Boc-Lys(trifluoroacetyl)-AMC) as substrate by fluorescence-based assay.
Experiment [16] addresses T1, Histone deacetylase 4. Kind of experiment: Inhibition of human HDAC4 using Boc-Lys(tri-fluoracetyl)-AMC as substrate preincubated for 30 mins followed by substrate addition and measured after 60 mins by […] assay.
The target in experiment [17] is T3, Histone deacetylase 1. Kind of experiment: Inhibition of human HDAC1 using Boc-Lys(Ac)-AMC as substrate preincubated for 30 mins followed by substrate addition and measured after 60 mins by […] assay.
Experiment [18] has as its target T4, Histone deacetylase 3. Put plainly: Inhibition of human HDAC3 using Boc-Lys(Ac)-AMC as substrate preincubated for 30 mins followed by substrate addition and measured after 60 mins by […] assay.
Experiment [19] concerns the target T10, Protein deacetylase HDAC6 (Homo sapiens, UniProt Q9UBN7).
T10 sequence (Q9UBN7 whole entry): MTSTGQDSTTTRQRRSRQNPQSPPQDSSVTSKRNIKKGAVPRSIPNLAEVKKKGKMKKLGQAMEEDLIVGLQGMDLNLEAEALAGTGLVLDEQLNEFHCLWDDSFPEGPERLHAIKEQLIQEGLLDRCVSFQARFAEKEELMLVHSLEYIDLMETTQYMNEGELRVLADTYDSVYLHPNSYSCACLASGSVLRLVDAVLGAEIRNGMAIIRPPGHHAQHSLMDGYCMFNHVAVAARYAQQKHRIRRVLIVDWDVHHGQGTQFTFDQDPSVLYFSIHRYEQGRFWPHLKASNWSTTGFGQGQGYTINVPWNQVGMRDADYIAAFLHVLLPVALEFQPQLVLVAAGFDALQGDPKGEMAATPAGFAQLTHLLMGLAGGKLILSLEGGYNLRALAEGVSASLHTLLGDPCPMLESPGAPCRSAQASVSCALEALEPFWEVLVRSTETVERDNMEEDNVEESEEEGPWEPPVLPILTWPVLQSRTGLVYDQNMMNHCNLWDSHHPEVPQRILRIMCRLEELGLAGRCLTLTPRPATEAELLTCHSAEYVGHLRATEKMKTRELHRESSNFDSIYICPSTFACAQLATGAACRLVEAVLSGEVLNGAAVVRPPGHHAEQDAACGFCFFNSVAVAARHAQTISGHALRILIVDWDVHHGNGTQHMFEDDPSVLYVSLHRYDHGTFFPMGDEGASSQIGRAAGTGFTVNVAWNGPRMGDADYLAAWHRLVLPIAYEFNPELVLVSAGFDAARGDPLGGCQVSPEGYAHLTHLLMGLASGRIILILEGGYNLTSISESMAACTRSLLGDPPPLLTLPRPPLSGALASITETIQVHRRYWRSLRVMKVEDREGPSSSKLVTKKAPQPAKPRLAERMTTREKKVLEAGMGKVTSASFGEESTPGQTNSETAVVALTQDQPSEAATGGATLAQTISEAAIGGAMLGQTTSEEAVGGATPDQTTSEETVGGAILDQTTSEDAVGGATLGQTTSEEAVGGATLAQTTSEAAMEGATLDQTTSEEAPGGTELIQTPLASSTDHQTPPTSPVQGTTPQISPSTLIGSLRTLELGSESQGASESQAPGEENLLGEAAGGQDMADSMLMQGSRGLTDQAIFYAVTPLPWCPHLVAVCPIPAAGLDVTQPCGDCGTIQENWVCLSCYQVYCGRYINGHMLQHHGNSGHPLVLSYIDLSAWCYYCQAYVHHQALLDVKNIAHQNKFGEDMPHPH
Put plainly: Inhibition of human HDAC6 using Boc-Lys(Ac)-AMC as substrate preincubated for 30 mins followed by substrate addition and measured after 60 mins by […].

Experiment [20] has as its target T5, Polyamine deacetylase HDAC10. Kind of experiment: Inhibition of HDAC10 (unknown origin).

The Kd is the free concentration of one partner at which half of the binding sites on the other are occupied at equilibrium, for simple one-to-one binding. Read a high Kd as lower affinity. For orientation: IC50 means the concentration needed to halve the response being measured. As usually defined, the Ki is the equilibrium dissociation constant of an inhibitor or competing ligand from its target. The low end stands for higher affinity, the high end for lower affinity.

Each structure is given as a SMILES string.

T7 sequence (Q9UQL6 whole entry): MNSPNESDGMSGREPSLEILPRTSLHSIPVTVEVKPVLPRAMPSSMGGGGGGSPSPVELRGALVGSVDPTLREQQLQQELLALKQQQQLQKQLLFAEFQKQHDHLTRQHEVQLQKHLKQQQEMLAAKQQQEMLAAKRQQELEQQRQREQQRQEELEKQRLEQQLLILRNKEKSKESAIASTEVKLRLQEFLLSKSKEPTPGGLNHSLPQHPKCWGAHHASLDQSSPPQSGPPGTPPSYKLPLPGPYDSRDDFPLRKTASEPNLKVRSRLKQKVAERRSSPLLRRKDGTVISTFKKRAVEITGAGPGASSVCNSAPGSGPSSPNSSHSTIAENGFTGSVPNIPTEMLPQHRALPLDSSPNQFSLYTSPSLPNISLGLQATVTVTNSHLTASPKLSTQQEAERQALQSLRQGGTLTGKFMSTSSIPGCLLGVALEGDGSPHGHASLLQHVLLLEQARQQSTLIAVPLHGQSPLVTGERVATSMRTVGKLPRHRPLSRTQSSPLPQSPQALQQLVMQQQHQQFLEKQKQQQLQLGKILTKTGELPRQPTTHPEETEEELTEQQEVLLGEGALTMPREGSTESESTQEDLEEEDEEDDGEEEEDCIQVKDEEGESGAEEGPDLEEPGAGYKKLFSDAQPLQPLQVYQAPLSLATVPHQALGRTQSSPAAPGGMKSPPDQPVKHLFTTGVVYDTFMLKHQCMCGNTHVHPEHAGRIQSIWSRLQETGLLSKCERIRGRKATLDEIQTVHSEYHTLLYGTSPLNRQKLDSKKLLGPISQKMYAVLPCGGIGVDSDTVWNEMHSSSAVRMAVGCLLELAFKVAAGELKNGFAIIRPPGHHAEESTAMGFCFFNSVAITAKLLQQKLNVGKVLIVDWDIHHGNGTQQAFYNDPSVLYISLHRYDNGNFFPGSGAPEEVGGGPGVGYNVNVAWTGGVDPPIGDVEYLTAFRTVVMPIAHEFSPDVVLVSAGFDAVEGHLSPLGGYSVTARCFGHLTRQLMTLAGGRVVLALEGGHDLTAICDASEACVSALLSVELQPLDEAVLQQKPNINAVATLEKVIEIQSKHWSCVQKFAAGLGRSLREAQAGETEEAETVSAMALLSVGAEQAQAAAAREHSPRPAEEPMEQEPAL
T6 sequence (Q9UKV0 whole entry, the tested form may be a part): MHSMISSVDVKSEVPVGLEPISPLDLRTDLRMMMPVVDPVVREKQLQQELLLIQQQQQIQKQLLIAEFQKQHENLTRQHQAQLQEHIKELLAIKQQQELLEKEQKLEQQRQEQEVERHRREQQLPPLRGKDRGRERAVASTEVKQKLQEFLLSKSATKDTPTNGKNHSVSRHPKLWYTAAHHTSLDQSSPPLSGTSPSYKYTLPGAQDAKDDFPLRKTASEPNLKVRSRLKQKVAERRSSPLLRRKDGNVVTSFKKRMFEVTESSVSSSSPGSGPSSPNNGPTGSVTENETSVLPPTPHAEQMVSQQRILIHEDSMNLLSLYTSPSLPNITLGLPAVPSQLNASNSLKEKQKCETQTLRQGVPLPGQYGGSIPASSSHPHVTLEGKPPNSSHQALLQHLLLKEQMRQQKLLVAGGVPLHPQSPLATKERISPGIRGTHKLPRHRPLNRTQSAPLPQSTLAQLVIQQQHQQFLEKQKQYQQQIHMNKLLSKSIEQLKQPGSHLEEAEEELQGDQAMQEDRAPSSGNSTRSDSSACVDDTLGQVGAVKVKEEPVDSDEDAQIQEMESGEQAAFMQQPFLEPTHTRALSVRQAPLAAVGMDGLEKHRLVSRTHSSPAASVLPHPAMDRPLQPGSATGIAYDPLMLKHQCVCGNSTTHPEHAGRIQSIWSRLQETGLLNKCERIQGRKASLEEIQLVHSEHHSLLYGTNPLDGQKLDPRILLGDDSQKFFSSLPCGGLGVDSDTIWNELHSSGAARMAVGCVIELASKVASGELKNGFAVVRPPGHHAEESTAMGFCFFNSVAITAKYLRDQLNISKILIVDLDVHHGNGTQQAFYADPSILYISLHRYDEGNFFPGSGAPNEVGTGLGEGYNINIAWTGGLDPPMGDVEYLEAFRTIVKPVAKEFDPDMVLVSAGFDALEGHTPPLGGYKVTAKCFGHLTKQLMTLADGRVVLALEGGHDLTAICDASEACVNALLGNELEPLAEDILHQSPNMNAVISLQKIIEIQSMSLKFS
T3 sequence (Q13547 whole entry): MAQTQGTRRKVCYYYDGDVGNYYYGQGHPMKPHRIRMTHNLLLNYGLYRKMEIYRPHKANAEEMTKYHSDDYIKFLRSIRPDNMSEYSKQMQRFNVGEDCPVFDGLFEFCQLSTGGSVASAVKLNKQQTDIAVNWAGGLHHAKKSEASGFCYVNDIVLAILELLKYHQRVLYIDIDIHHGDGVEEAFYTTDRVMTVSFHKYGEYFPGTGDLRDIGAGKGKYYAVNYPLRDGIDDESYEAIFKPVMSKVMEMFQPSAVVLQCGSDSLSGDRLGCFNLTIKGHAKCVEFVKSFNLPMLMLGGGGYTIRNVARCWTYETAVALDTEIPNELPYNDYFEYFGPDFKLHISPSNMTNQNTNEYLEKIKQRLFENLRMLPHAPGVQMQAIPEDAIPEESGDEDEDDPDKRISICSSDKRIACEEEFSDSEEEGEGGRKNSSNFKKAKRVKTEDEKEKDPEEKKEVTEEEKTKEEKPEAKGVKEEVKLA
T1 sequence (P56524 whole entry): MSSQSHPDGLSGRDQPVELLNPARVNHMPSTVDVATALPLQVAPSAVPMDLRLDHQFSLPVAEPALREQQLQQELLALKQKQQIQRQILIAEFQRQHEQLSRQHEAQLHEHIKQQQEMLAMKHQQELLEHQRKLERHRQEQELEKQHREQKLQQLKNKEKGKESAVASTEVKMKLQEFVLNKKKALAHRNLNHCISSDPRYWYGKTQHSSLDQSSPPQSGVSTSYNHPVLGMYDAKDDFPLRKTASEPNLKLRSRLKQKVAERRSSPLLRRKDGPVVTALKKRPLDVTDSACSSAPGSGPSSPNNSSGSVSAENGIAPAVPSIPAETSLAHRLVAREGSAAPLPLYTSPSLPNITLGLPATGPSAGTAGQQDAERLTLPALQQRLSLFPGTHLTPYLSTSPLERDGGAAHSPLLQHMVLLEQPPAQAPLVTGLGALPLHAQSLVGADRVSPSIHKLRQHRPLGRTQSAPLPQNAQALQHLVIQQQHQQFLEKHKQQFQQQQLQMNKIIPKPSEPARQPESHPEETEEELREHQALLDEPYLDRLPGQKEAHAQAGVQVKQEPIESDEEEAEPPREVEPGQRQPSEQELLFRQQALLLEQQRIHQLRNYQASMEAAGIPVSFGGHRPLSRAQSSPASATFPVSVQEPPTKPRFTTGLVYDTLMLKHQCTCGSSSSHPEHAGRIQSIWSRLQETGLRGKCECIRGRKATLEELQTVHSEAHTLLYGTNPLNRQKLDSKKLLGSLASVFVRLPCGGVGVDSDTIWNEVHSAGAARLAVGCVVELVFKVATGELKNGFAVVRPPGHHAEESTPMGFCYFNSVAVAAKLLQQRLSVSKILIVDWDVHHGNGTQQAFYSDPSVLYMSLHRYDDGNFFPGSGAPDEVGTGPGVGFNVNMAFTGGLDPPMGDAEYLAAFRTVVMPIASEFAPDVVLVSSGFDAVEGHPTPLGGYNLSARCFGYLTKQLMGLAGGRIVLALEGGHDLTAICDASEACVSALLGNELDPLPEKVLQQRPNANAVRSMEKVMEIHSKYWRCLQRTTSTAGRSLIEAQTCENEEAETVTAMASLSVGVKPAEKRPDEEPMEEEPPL
T4 sequence (O15379 whole entry): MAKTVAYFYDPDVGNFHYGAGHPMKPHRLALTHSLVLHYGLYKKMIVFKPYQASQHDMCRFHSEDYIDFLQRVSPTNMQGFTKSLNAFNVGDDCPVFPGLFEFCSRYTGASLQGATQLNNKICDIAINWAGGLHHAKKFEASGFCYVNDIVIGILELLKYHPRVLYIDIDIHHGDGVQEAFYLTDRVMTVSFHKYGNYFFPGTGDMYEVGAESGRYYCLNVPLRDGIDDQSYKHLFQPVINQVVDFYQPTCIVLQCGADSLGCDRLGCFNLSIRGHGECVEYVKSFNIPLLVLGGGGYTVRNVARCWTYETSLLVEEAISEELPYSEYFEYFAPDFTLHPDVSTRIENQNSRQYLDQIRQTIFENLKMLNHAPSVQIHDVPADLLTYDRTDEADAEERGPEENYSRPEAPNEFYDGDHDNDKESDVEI
T2 sequence (Q92769 whole entry): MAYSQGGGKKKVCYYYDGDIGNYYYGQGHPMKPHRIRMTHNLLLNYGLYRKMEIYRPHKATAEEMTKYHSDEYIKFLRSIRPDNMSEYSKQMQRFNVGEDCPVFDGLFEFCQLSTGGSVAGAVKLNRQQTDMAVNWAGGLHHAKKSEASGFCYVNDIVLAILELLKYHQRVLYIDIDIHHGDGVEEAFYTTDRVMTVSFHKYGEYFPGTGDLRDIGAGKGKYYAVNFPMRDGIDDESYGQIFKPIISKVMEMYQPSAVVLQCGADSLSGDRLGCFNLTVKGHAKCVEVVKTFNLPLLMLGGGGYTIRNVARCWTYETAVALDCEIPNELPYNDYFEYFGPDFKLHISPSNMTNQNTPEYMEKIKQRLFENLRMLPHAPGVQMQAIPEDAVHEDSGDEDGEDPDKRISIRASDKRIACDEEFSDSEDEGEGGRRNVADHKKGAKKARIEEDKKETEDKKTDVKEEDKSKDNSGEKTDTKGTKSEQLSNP

Consider `COc1cccc2c1c(O)c(C(=O)N(C)c1ccc(C(F)(F)F)cc1)c(=O)n2C` [TASQUINIMOD], for which the Kd on Histone deacetylase 4 [1] amounted to 10 nM.

With `Cc1cn(C)nc1CN1CCC(c2ccc(C(=O)Nc3ccccc3N)cc2)CC1`, the IC50 amounted to 600 nM on Histone deacetylase 2 [2], 100 nM on Histone deacetylase 1 [3] and 600 nM on Histone deacetylase 3 [4].

Regarding `C/C=C1\NC(=O)[C@@H](C)NC(=O)[C@@H](C(C)C)NC(=O)C[C@@H](CCC)OC(=O)[C@H](C(C)C)NC1=O`, the Ki at Histone deacetylase 2 [5] worked out at 370 nM; in experiment [6], 800 nM; on Histone deacetylase 1 [7], 690 nM.

On to `CCN(CC)Cc1ccc2cc(COC(=O)Nc3ccc(C(=O)NO)cc3)ccc2c1` [GIVINOSTAT], for which the IC50 in [8] was 331 nM; at Histone deacetylase 9 [9], 512 nM; at Histone deacetylase 5 [10] it was 532 nM; against Histone deacetylase 4 [11], more than 1000 nM.

On to `Nc1ccccc1NC(=O)c1ccc(CNc2nccc(-c3cccnc3)n2)cc1` [MOCETINOSTAT], for which the IC50 at Histone deacetylase 11 stood at 600 nM.

For the compound `CCCCNNC(=O)c1ccc(Br)cc1`, the IC50 on Histone deacetylase 8 was 2000 nM; in experiment [12], 15 µM.

As for `Cc1ncsc1-c1ccc(CNC(=O)[C@@H]2C[C@@H](O)CN2C(=O)[C@@H](NC(=O)CCCCCCCCCCC(=O)Nc2ccc(C(=O)Nc3cc(-c4ccccc4)ccc3N)cc2)C(C)(C)C)cc1`, the IC50 in [13] stood at 17 µM.

Take `CN(C)Cc1c(C(=O)NCCOc2ccc(C(=O)NO)cc2)oc2ccccc12` [ABEXINOSTAT]: the IC50 against Histone deacetylase 5 [14] worked out at 48 nM; at Histone deacetylase 9 [15], 168 nM.

For the compound `N=C1Sc2ccccc2C2=NCCCN12`, the IC50 against Histone deacetylase 4 [16] was 9 µM; on Histone deacetylase 1 [17], 4 µM; on Histone deacetylase 3 [18], more than 50 µM; in [19], 7 µM.

As for `Cn1cc(CNCC2CCN(c3ncc(C(=O)NO)cn3)CC2)c2ccccc21` [QUISINOSTAT], the IC50 was 4 nM on Histone deacetylase 5 [14], 32 nM at Histone deacetylase 9 [15] and 0.5 nM in experiment [20].
